Results taken from patent US20090111856A1, “Parenteral Formulation Comprising Proton Pump Inhibitor Sterilized in its Final Container by Ionizing Radiation” (priority 2006, published 2009).

Assay: Appearance of acid susceptible proton pump inhibitor powders before and after gamma sterilization
Type: physicochemical
Settings: for Color change after radiation: gamma sterilization 25 kGy; for Appearance After sterilization (25 kGy) / Appearance Before sterilization: powder; for Appearance After sterilization (25 kGy): after gamma sterilization 25 kGy; for Appearance Before sterilization: before gamma sterilization
Procedure: In addition to esomeprazole sodium exemplified in Example 1, three other acid susceptible proton pump inhibitors, omeprazole sodium, pantoprazole sodium and lansoprazole, were gamma sterilized with a sterilizing dose of 25 kGy. The appearance of the powder was determined before and after gamma sterilization.

Color change after radiation	Appearance After sterilization (25 kGy)	Appearance Before sterilization	Structure (SMILES)
no color change	–	–	Cc1c(OCC(F)(F)F)ccnc1C[S+]([O-])c1nc2ccccc2[nH]1 (stereo not shown) [Lansoprazole]
some small (very minor) color changes	Very slightly yellow	White to off-white	COc1ccc2[n-]c([S+]([O-])Cc3ncc(C)c(OC)c3C)nc2c1.[Na+] (stereo not shown) [Omeprazole sodium]
some small (very minor) color changes	Very slightly yellow	White to off-white	COc1ccnc(C[S+]([O-])c2nc3ccc(OC(F)F)cc3[nH]2)c1OC (stereo not shown) [Pantoprazole sodium]
